Data reported in ChEMBL document CHEMBL1201862, “PubChem BioAssay data set” (2004).
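96-well plates; 48 h exposure; 5 concentrations. Endpoints by linear interpolation between flanking doses. Not reached: highest tested concentration assigned. GI50 marks 50% less growth.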 Calls of active or inactive are those of the source. Rule as the data show it: active = GI50 up to about 1.1 µM and inactive = higher.

Experiments:
Assay in all cases: NCI-60 cell line screen, 48 h
[1] = tested on: CCRF-CEM
[2] = tested on: SK-OV-3
[3] = tested on: SK-MEL-2
[4] = tested on: Malme-3M
[5] = tested on: OVCAR-3
[6] = tested on: IGROV-1
[7] = tested on: RXF 393
[8] = tested on: SW-620
[9] = tested on: RPMI-8226
[10] = tested on: MCF7
[11] = tested on: MDA-N
[12] = tested on: HCC 2998
[13] = tested on: MDA-MB-231
[14] = tested on: A549
[15] = tested on: M14
[16] = tested on: MDA-MB-435
[17] = tested on: A498
[18] = tested on: HOP-62
[19] = tested on: SK-MEL-28

Measured: GI50

Nc1nc(Nc2ccccc2)c2[nH]cnc2n1
inactive: [1] 50.7 µM | [2] 84.5 µM | [3] 66.2 µM | [4] 30.6 µM | [5] 89.9 µM | [6] 32 µM | [7] > 100 µM | [8] > 100 µM | [9] 53.7 µM | [10] > 100 µM | [11] 47.8 µM | [12] 86.3 µM | [13] > 100 µM | [14] > 100 µM | [15] > 100 µM | [16] > 100 µM | [17] 20.3 µM | [18] > 100 µM | [19] > 100 µM

C1C2CC3CC1CC(c1nn4c(C56CC7CC(CC(C7)C5)C6)nnc4s1)(C2)C3
inactive: [1] > 100 µM | [2] > 100 µM | [3] > 100 µM | [4] > 100 µM | [5] > 100 µM | [6] > 100 µM | [7] > 100 µM | [8] > 100 µM | [9] > 100 µM | [11] > 100 µM | [12] > 100 µM | [13] > 100 µM | [14] > 100 µM | [15] > 100 µM | [16] > 100 µM | [17] > 100 µM | [18] > 100 µM | [19] > 100 µM

O=C(O)CNc1ncc2c(n1)-c1ccccc1OC2
inactive: [1] > 100 µM | [2] > 100 µM | [3] > 100 µM | [4] > 100 µM | [5] > 100 µM | [6] > 100 µM | [7] > 100 µM | [8] > 100 µM | [9] > 100 µM | [10] > 100 µM | [11] > 100 µM | [13] > 100 µM | [14] > 100 µM | [15] > 100 µM | [16] > 100 µM | [18] > 100 µM | [19] > 100 µM

CC1(Cl)CC2OC3(Br)C=CC(C)(O)C2(CC1Br)C3(C)C (configuration not stated)
inactive: [1] > 100 µM | [2] > 100 µM | [3] > 100 µM | [4] > 100 µM | [5] > 100 µM | [6] > 100 µM | [7] > 100 µM | [8] > 100 µM | [9] > 100 µM | [12] > 100 µM | [14] > 100 µM | [15] > 100 µM | [17] > 100 µM | [18] > 100 µM | [19] > 100 µM

c1cc(C2=NCCO2)c2ccsc2c1
inactive: [1] > 100 µM | [2] > 100 µM | [3] > 100 µM | [4] > 100 µM | [5] > 100 µM | [6] > 100 µM | [7] > 100 µM | [8] > 100 µM | [9] > 100 µM | [10] > 100 µM | [11] > 100 µM | [12] > 100 µM | [13] > 100 µM | [14] > 100 µM | [15] > 100 µM | [16] > 100 µM | [17] > 100 µM | [18] > 100 µM | [19] > 100 µM

CC(=O)CCC(=O)CC(O)(C(F)(F)F)C(F)(F)F
inactive: [1] 21.6 µM | [2] > 10 µM | [4] 16.7 µM | [6] 15.4 µM | [7] 18.6 µM | [8] 21.6 µM | [9] 17.2 µM | [10] 18.8 µM | [12] 18.4 µM | [13] 19.2 µM | [14] 20.6 µM | [15] 19.9 µM | [16] 19.4 µM | [17] 5.01 µM | [18] 17.9 µM | [19] 22.7 µM

O=C(O)CSc1nnc(-c2ccco2)[nH]1
inactive: [1] > 100 µM | [2] > 100 µM | [3] > 100 µM | [4] > 100 µM | [5] > 100 µM | [6] > 100 µM | [7] > 100 µM | [8] > 100 µM | [9] > 100 µM | [12] > 100 µM | [14] > 100 µM | [15] > 100 µM | [17] > 100 µM | [18] > 100 µM | [19] > 100 µM

O=C(O)/C=C\C(=O)c1ccc(Cl)cc1
inactive: [1] 20 µM | [2] > 100 µM | [3] 28.6 µM | [4] 18.9 µM | [5] 28.8 µM | [6] > 70.1 µM | [7] 21.5 µM | [8] 24 µM | [9] 25.2 µM | [12] > 100 µM | [14] > 100 µM | [15] 18.5 µM | [17] 79.8 µM | [18] > 100 µM | [19] 18.7 µM

COc1ccc(Cc2c(-c3ccc(C)cc3)n[nH]c(=O)c2C2C(=O)N(c3ccccc3)N=C2c2ccccc2)cc1 (configuration not stated)
inactive: [1] 32.2 µM | [2] 52.8 µM | [3] 21.9 µM | [4] 24.1 µM | [5] 19 µM | [6] 32.1 µM | [7] 26.7 µM | [8] 37.7 µM | [9] 42 µM | [10] 44.5 µM | [11] 24.4 µM | [12] 27.6 µM | [13] 35.6 µM | [14] 31.4 µM | [15] 26.9 µM | [16] 20.3 µM | [17] 30.2 µM | [18] 40.1 µM | [19] 33 µM

Cc1ccc2nc3ccccc3c(C3C4C(=O)N(c5ccc(Br)cc5Cl)C(=O)C4ON3C(C(N)=O)c3ccccc3)c2c1 (configuration not stated)
inactive: [1] 8.13 µM | [2] > 25 µM | [3] 18.1 µM | [4] > 25 µM | [5] > 25 µM | [6] 16.7 µM | [7] 13.3 µM | [8] > 25 µM | [10] 11.6 µM | [11] 6.9 µM | [13] > 25 µM | [14] > 25 µM | [15] 11.6 µM | [16] 11.1 µM | [17] > 25 µM | [18] > 25 µM | [19] > 25 µM

COc1ccc(O)c(C(=O)CCC(=O)O)c1
inactive: [1] > 100 µM | [2] > 100 µM | [3] > 100 µM | [4] > 100 µM | [5] > 10 µM | [6] > 100 µM | [7] > 100 µM | [8] > 100 µM | [9] > 100 µM | [12] > 100 µM | [14] > 100 µM | [15] > 10 µM | [17] > 100 µM | [18] > 10 µM | [19] > 100 µM

COCc1cc2c(cc1/C=C/[N+](=O)[O-])OCO2
inactive: [1] 1.62 µM | [2] 17.9 µM | [5] 19.4 µM | [6] 22.8 µM | [7] 18 µM | [8] 17.7 µM | [9] 76 µM | [10] 29.7 µM | [11] 17.7 µM | [12] 17.5 µM | [13] 20.4 µM | [14] 17.1 µM | [15] 16.7 µM | [16] 18.3 µM | [17] 17 µM | [18] 20.7 µM | [19] 11 µM
